Experiments:
[1] = biological target: T1, c-Met intracellular domain protein (Homo sapiens, UniProt P08581); assay: Hepatocyte growth factor receptor (c-Met) kinase inhibitory activity (AlphaScreen); type: biochemical; conditions: for inhibition at 1 µM: 1 μM test compound, read-out: inhibitory rate (%) at 1 μM
T1 construct: 2.5 ng/ml of c-Met intracellular domain protein (Millipore); purchased Millipore
Protocol: A test compound dissolved in dimethyl sulfoxide (DMSO) was diluted with a buffer (50 mM Tris-HCl (pH 7.5), 5 mM MgCl2, 5 mM MnCl2, 2 mM dithiothreitol, 0.01% Tween-20). To this compound solution (5 μL) was added a buffer (10 μL) containing 2.5 ng/ml of c-Met intracellular domain protein (Millipore) and 250 ng/mL of biotin labeled polypeptide biotinyl-poly-Glu:Tyr (4:1) (CIS bio International). […] The reaction solution was allowed to stand at 25° C. for 16 hrs, and the wells were counted using a plate reader (Fusion™ (PerkinElmer)). The kinase inhibitory rate (%) of the test compound was calculated by the following formula: Inhibitory rate (%)=(1−(count of test compound−blank)÷(control−blank))×100
The count of the solution reacted without addition of the compound was used as a “control”, and the count of the solution without the compound and ATP was used as a “blank”.

[2] = tested on: Human umbilical vein-derived vascular endothelial cells (HUVEC); assay: Vascular endothelial cell proliferation inhibitory test (VEGF-stimulated HUVEC); type: cell-based; conditions: 120 h, 5 days of culture with VEGF
Summary of the method: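 HUVEC (3000 cells/well) in medium with 3% FBS, cultured overnight, then given test substance plus VEGF (120 ng/mL in the added medium). After 5 days at 37 °C, Cell Counting Kit-8 was applied for 2-3 h and A450 read. IC50 relative to no-compound wells, by logistic nonlinear least-squares fit.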

[3] = tested on: Human gastric cancer cell line MKN-45; assay: Human gastric cancer cell line MKN-45 growth inhibitory test; type: cell-based; conditions: MKN-45, 72 h, culture for 3 days; for inhibition at 1 µM: 1 μM test substance, read-out: inhibitory rate (%) at 1 μM; for IC50: read-out: IC50 value
Summary of the method: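 MKN-45 cells plated at 3000/well in RPMI1640 with 0.3% FBS, then exposed to test substance for 3 days at 37 °C. Viability read by CCK-8 absorbance at 450 nm; IC50 from variable-slope sigmoidal fit, with DMSO as 100% growth and 10 µM reference c-Met inhibitor as 0% growth.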

[4] = biological target: T2, FLT3 intracellular domain protein (Homo sapiens, UniProt P36888); assay: Fms Like Tyrosine Kinase 3 (FLT3) kinase inhibitory activity (AlphaScreen); type: biochemical; conditions: for inhibition at 1 µM: 1 μM test compound, read-out: inhibitory rate (%) at 1 μM
T2 construct: 7.5 ng/ml of FLT3 intracellular domain protein (Millipore); purchased Millipore
T2 sequence (P36888 564-993 limits assumed): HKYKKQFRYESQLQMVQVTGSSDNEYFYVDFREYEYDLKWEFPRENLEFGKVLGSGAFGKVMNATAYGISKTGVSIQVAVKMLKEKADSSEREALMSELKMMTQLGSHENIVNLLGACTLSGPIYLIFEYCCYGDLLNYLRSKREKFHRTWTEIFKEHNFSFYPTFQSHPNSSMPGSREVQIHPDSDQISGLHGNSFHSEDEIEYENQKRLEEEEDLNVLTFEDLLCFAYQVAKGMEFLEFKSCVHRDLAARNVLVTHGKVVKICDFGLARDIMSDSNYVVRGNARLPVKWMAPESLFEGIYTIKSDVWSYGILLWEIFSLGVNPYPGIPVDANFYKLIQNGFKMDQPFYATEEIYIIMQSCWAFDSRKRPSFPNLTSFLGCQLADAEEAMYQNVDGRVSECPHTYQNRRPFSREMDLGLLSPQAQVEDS
Summary of the method: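 FLT3 intracellular domain (7.5 ng/ml) and biotin-poly-Glu:Tyr (250 ng/mL), each as added, were preincubated 5 min with compound in Tris pH 7.5 with Mg²⁺, Mn²⁺, DTT and Tween-20. ATP was added (5 μM) for 10 min at 25 °C, then EDTA stop with streptavidin donor/anti-phosphotyrosine acceptor beads for 16 h. % inhibition was calculated against the no-compound control and the no-compound/no-ATP blank.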

T1 sequence (P08581 956-1390 limits assumed): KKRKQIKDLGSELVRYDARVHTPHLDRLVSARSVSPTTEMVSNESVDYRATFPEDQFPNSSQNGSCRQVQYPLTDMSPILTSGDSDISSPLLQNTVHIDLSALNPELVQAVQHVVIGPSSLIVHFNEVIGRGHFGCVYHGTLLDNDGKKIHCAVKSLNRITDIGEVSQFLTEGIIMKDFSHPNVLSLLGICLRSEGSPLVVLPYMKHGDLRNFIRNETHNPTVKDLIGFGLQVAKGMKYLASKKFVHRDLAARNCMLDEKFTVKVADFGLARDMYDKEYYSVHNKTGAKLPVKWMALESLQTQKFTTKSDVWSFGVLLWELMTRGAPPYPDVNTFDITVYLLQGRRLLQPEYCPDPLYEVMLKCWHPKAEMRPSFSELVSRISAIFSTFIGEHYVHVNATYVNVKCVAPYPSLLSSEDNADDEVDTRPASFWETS

| IC50 [1] | inhibition at 1 µM [1] | IC50 [3] | IC50 [4] | inhibition at 1 µM [4] | Structure (SMILES) | IC50 [2] | inhibition at 1 µM [3] |
| --- | --- | --- | --- | --- | --- | --- | --- |
| ≤ 1000 nM | ≥ 80% | ≤ 1000 nM | ≤ 1000 nM |  | Cc1ccc(C(=O)Nc2ccc(Oc3ccc4nc(NC(=O)C5CC5)cn4c3)cc2F)[n+]([O-])c1-c1ccc(F)cc1 [Example 84, N-[4-({2-[(cyclopropylcarbonyl)amino]imidazo[1,2-a]pyridin-6-yl}oxy)-2-fluorophenyl]-6-(4-fluorophenyl)-5-methylpyridine-2-carboxamide 1-oxide] | ≤ 2000 nM | ≥ 80% |
| ≤ 1000 nM | ≥ 80% | ≤ 1000 nM | ≤ 1000 nM |  | Cc1ccc(C(=O)Nc2ccc(Oc3ccc4nc(NC(=O)C5CC5)cn4c3)c(F)c2)[n+]([O-])c1-c1cccc(F)c1 [Example 93, N-[4-({2-[(cyclopropylcarbonyl)amino]imidazo[1,2-a]pyridin-6-yl}oxy)-3-fluorophenyl]-6-(3-fluorophenyl)-5-methylpyridine-2-carboxamide 1-oxide] | ≤ 2000 nM | ≥ 80% |
| ≤ 1000 nM | ≥ 80% | ≤ 1000 nM | ≤ 1000 nM | ≥ 50% | Cc1ccc(C(=O)Nc2ccc(Oc3ccc4nc(NC(=O)C5CC5)cn4c3)cc2)c(=O)n1-c1ccc(F)cc1 [Example 28, N-[4-({2-[(cyclopropylcarbonyl)amino]imidazo[1,2-a]pyridin-6-yl}oxy)phenyl]-1-(4-fluorophenyl)-6-methyl-2-oxo-1,2-dihydropyridine-3-carboxamide] | ≤ 2000 nM | ≥ 80% |
| ≤ 1000 nM | ≥ 80% | ≤ 1000 nM | ≤ 1000 nM |  | Cc1ccc(C(=O)Nc2ccc(Oc3ccc4nc(NC(=O)C5CC5)cn4c3)c(Cl)c2)c(=O)n1-c1ccc(F)cc1 [Example 57, N-[3-chloro-4-({2-[(cyclopropylcarbonyl)amino]imidazo[1,2-a]pyridin-6-yl}oxy)phenyl]-1-(4-fluorophenyl)-6-methyl-2-oxo-1,2-dihydropyridine-3-carboxamide] | ≤ 2000 nM | ≥ 80% |
| ≤ 1000 nM | ≥ 80% | ≤ 1000 nM | ≤ 1000 nM |  | O=C(Nc1cn2cc(Oc3ccc(NC(=O)C4(C(=O)Nc5ccccc5)CC4)cc3F)ccc2n1)C1CC1 [Example 14, N-[4-({2-[(cyclopropylcarbonyl)amino]imidazo[1,2-a]pyridin-6-yl}oxy)-3-fluorophenyl]-N′-phenylcyclopropane-1,1-dicarboxamide] | ≤ 2000 nM | ≥ 80% |
| ≤ 1000 nM | ≥ 80% | ≤ 1000 nM | ≤ 1000 nM |  | Cc1ccc(C(=O)Nc2ccc(Oc3ccc4nc(NC(=O)C5CC5)cn4c3)cc2)[n+]([O-])c1-c1ccc(F)cc1 [Example 72, N-[4-({2-[(cyclopropylcarbonyl)amino]imidazo[1,2-a]pyridin-6-yl}oxy)phenyl]-6-(4-fluorophenyl)-5-methylpyridine-2-carboxamide 1-oxide] | ≤ 2000 nM | ≥ 80% |
| ≤ 1000 nM | ≥ 80% | ≤ 1000 nM | ≤ 1000 nM | ≥ 50% | O=C(Nc1nc2ccc(Oc3ccc(NC(=O)C4(C(=O)Nc5ccccc5)CC4)cc3F)cc2s1)C1CC1 [Example 18, N-[4-({2-[(cyclopropylcarbonyl)amino]-1,3-benzothiazol-6-yl}oxy)-3-fluorophenyl]-N′-phenylcyclopropane-1,1-dicarboxamide] | ≤ 2000 nM | ≥ 80% |
| ≤ 1000 nM | ≥ 80% | ≤ 1000 nM | ≤ 1000 nM |  | Cc1ccc(C(=O)Nc2ccc(Oc3ccc4nc(NC(=O)C5CC5)cn4c3)c(F)c2)c(=O)n1-c1ccc(F)c(F)c1 [Example 45, N-[4-({2-[(cyclopropylcarbonyl)amino]imidazo[1,2-a]pyridin-6-yl}oxy)-3-fluorophenyl]-1-(3,4-difluorophenyl)-6-methyl-2-oxo-1,2-dihydropyridine-3-carboxamide] | ≤ 2000 nM | ≥ 80% |
| ≤ 1000 nM | ≥ 80% | ≤ 1000 nM | ≤ 1000 nM |  | Cc1cc(C(=O)Nc2ccc(Oc3ccc4nc(NC(=O)C5CC5)cn4c3)c(F)c2)c(=O)n(-c2ccc(F)cc2)c1C [Example 70, N-[4-({2-[(cyclopropylcarbonyl)amino]imidazo[1,2-a]pyridin-6-yl}oxy)-3-fluorophenyl]-1-(4-fluorophenyl)-5,6-dimethyl-2-oxo-1,2-dihydropyridine-3-carboxamide] | ≤ 2000 nM | ≥ 80% |
| ≤ 1000 nM | ≥ 80% | ≤ 1000 nM | ≤ 1000 nM |  | Cc1ccc(C(=O)Nc2ccc(Oc3ccc4nc(NC(=O)C5CC5)cn4c3)cn2)[n+]([O-])c1-c1ccc(F)cc1 [Example 61, N-[5-({2-[(cyclopropylcarbonyl)amino]imidazo[1,2-a]pyridin-6-yl}oxy)pyridin-2-yl]-6-(4-fluorophenyl)-5-methylpyridine-2-carboxamide 1-oxide] | ≤ 2000 nM | ≥ 80% |
| ≤ 1000 nM | ≥ 80% | ≤ 1000 nM | ≤ 1000 nM |  | CC1CCN(C(=O)Nc2ccc(Oc3ccc4nc(NC(=O)C5CC5)cn4c3)c(F)c2)C(=O)N1c1ccc(F)cc1 (centres unmarked) [Example 80, N-[4-({2-[(cyclopropylcarbonyl)amino]imidazo[1,2-a]pyridin-6-yl}oxy)-3-fluorophenyl]-3-(4-fluorophenyl)-4-methyl-2-oxotetrahydropyrimidine-1(2H)-carboxamide] | ≤ 2000 nM | ≥ 80% |
| ≤ 1000 nM | ≥ 80% | ≤ 1000 nM | ≤ 1000 nM |  | Cc1ccc(C(=O)Nc2ccc(Oc3ccn4nc(NC(=O)C5CC5)nc4c3)c(F)c2)c(=O)n1-c1ccc(F)cc1 [Example 76, N-[4-({2-[(cyclopropylcarbonyl)amino][1,2,4]triazolo[1,5-a]pyridine-7-yl}oxy)-3-fluorophenyl]-1-(4-fluorophenyl)-6-methyl-2-oxo-1,2-dihydropyridine-3-carboxamide] | ≤ 2000 nM | ≥ 80% |
| ≤ 1000 nM | ≥ 80% | ≤ 1000 nM | ≤ 1000 nM |  | Cc1ccc(C(=O)Nc2ccc(Oc3ccc4nc(NC(=O)C5CC5)cn4c3)c(F)c2)[n+]([O-])c1-c1ccc(F)cc1 [Example 29, N-[4-({2-[(cyclopropylcarbonyl)amino]imidazo[1,2-a]pyridin-6-yl}oxy)-3-fluorophenyl]-6-(4-fluorophenyl)-5-methylpyridine-2-carboxamide 1-oxide] | ≤ 2000 nM | ≥ 80% |
| ≤ 1000 nM | ≥ 80% | ≤ 1000 nM | ≤ 1000 nM |  | Cc1cc(C(=O)Nc2ccc(Oc3ccc4nc(NC(=O)C5CC5)cn4c3)c(F)c2)c(=O)n(-c2ccc(F)cc2)c1 [Example 66, N-[4-({2-[(cyclopropylcarbonyl)amino]imidazo[1,2-a]pyridin-6-yl}oxy)-3-fluorophenyl]-1-(4-fluorophenyl)-5-methyl-2-oxo-1,2-dihydropyridine-3-carboxamide] | ≤ 2000 nM | ≥ 80% |

— US8445509B2, “Fused heterocyclic derivatives and use thereof” (Takeda Pharmaceutical Company Limited, priority 2008, dated 2013)
